# Source: US5783434A, “Cathepsin and methods and compositions for inhibition thereof” (priority 1995, dated 1998)
# Entries after “also recorded” stand apart in the source; their conditions may differ. Where a SMILES comes first, the peptide text is derived from it. [ ]: non-standard residue; d: D form. The star is where a group is joined. Cbz = O=C(OCc1ccccc1)*
# Assays:
# Assay type in all cases: biochemical
# Cathepsin Y [1] = target: T1, Cathepsin Y (Homo sapiens, UniProt Q9UBR2); test: Inhibition of Cathepsin Y carboxypeptidase activity (o-phthalaldehyde fluorescence, acetylated EGYYGNYGV substrate); settings: pH 4.5
# T1 construct: source of the purified preparation not in excerpts; cDNA from human HS683 cells, expressed in 293 cells
# T1 sequence (Q9UBR2 62-303): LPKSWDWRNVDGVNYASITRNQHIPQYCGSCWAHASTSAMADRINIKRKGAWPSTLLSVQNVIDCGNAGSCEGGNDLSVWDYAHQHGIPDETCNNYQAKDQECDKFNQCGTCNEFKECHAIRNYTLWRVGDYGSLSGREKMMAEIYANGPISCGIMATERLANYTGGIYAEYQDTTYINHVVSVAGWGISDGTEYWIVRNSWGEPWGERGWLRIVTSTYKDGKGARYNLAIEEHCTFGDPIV
# Method: (§1) This is accomplished by reacting with the reagent o-phthalaldehyde in an alkaline solution in the presence of 2-mercaptoethanol (Simons, et al., JACS, 98:7098-7099, (1976)).
# (§2) A standard curve was constructed by incubating varying concentrations of valine (0-20 μM) in 0.25M sodium borate, pH 10, containing 0.05% 2-mercaptoethanol and 60 μg/mL o-phthalaldehyde, in individual wells of a 96 well microtiter plate. The resulting fluorescence is read in a plate reading Cytofluor (ex 340, em 460 nm). There is a linear increase in the signal proportional to the amount of free valine present (FIG. 7).
# (§3) In order to determine the pH optimum of the enzyme, reaction mixtures were set up with enzyme and substrate (0.2 mg/mL) in a total reaction volume of 0.1 mL) in individual wells of 96-well microtiter plates, in 20 mM sodium acetate buffers at different pHs, with 0.1% 2-mercaptoethanol present. Control wells were set identically except for the […] of enzyme. At various time-points after incubation at room temperature, the reactions were quenched by the addition of an equal volume of 0.45M sodium borate, pH 10, with 0.25 mg/mL o-phthalaldehyde, and the fluorescence measured. In the absence of added enzyme, no measurable fluorescence is generated above background, even with extended incubations. In the presence of enzyme, there is a time-dependent increase in fluorescence.
# Using this assay at pH 4.5, the ability of a number of compounds to inhibit the activity of Cathepsin Y was tested, by adding the desired concentration of the inhibitor in the incubation mixture along with enzyme and substrate, and measuring the decrease in fluorescence (if any) relative to enzyme control.
# [2] = pH optimum of Cathepsin Y carboxypeptidase activity; settings: 20 mM sodium acetate buffers, room temperature
# Method: as §1, §2, §3
# [3] = Activity of Cathepsin Y on synthetic substrates used for assaying Cathepsin B, L or S
# Cathepsin Y [4] = target: T1, Cathepsin Y; test: Cleavage of synthetic oligopeptides by purified Cathepsin Y (RP-HPLC, amino-acid analysis); settings: for cleavage product(s) of parent oligopeptide with Cathepsin Y: 50 μg/mL peptide, pH 4.5 or 5.5, 1 hour, 37° C
# Method: In an effort to identify whether the enzyme has other proteolytic activity, a number of randomly selected synthetic oligopeptides were incubated with purified Cathepsin Y at pH 5.5 or 4.5. Specifically, purified Cathepsin Y was incubated with the selected synthetic oligopeptides (50 μg/mL) at either pH 4.5 or pH 5.5, for 1 hour at 37° C. Samples were quenched by the addition of trifluoroacetic acid to 1% final concentration, then analyzed by reverse phase HPLC on a Vydac C18 column, using a gradient of increasing acetonitrile in 0.1% trifluoroacetic acid. Individual peaks (parent and new product(s)) were collected, then analyzed by acid hydrolysis followed by amino-acid analysis.
# APP = test: Proteolytic activity of purified Cathepsin Y on APP preparations; settings: purified recombinant APP constructs and membrane-bound full-length APP
# [5] = synthetic oligopeptides, pH 4.5 or 5.5
Compound,inhibition of Cathepsin Y activity (Cathepsin Y [1]),cleavage product(s) of parent oligopeptide with Cathepsin Y (Cathepsin Y [4]),also measured
O=C[C@H](Cc1ccccc1)NC(=O)C(c1ccccc1)c1ccccc1 [Example 3],indicated inhibition of Cathepsin Y activity,,
O=C[C@H](Cc1ccccc1)NC(=O)CCCCc1ccccc1 [Example 4],indicated inhibition of Cathepsin Y activity,,
O=C[C@H](Cc1ccccc1)NC(=O)C(=Cc1ccccc1)c1ccccc1 [Example 7],indicated inhibition of Cathepsin Y activity,,
CC(C)[C@H](NC(=O)OCc1ccccc1)C(=O)N[C@H](C=O)Cc1ccccc1 [Example 15] (Cbz-Val-Phe-aldehyde),indicated inhibition of Cathepsin Y activity,,
CC(C)[C@@H](NC(=O)OCc1ccccc1)C(=O)N[C@H](C=O)Cc1ccccc1 [Example 24] (Cbz-[dV]-Phe-aldehyde),indicated inhibition of Cathepsin Y activity,,
O=C[C@H](Cc1ccc(OCc2ccccc2)cc1)NC(=O)C(c1ccccc1)c1ccccc1 [Example 45],indicated inhibition of Cathepsin Y activity,,
CSCC[C@@H](C=O)NC(=O)[C@@H](NC(=O)OCc1ccccc1)C(C)C [Example 47] (Cbz-Val-Met-aldehyde),indicated inhibition of Cathepsin Y activity,,
O=C[C@H](Cc1ccccc1)NC(=O)Cc1ccccc1 [Example 59],indicated inhibition of Cathepsin Y activity,,
O=C[C@H](Cc1ccccc1)NC(=O)C1c2ccccc2Oc2ccccc21 [Example 64],indicated inhibition of Cathepsin Y activity,,
O=C[C@H](Cc1ccccc1)NC(=O)N(c1ccccc1)c1ccccc1 [Example 75],indicated inhibition of Cathepsin Y activity,,
Cathepsin Y: novel carboxypeptidase having a molecular weight of approximately 31 kD and the amino acid sequence set forth in SEQ ID No. 3,,,"pH optimum for carboxypeptidase activity [2]: about 4.5; activity with known synthetic substrates for Cathepsin B, L or S [3]: No significant activity; endopeptidase or aminopeptidase activity (Cathepsin Y [4]; [5]): No evidence of any endopeptidase or aminopeptidase activity; predominant proteolytic activity (Cathepsin Y [4]; [5]): carboxypeptidase activity; effect on various APP preparations (APP): without effect"
EGYYGNYGV,,EGYYGNYGV,
EGYYGNYGVYA,,EGYYGNYGVY; also recorded: EGYYGNYGV,
FFDEPNPGVTIY,,FFDEPNPGVT,
LFYDQSPTATI,,LFYDQSPTAT; also recorded: LFYDQSPTA; also recorded: LFYDQSPT,
YKRDMVGGVVIA,,YKRDMVGGVVI; also recorded: YKRDMVGGVV,
